Laboratory results from US9370523B2, “Method for diagnosing or prediagnosing a beta-amyloidopathy or an alpha-synucleopathy” (Immungenetics AG, priority 2010, dated 2016).

Tested on: ABCC1 transporter
Test: Activation of the ABCC1 transporter

For `CCSc1ccc2c(c1)N(CCCN1CCN(C)CC1)c1ccccc1S2` [thiethylperazine, 2-(ethylthio)-10-[3-(4-methylpiperazin-1-yl)propyl]-10H-phenothiazine], the “activation of the ABCC1 transporter, in words” value was “particularly efficient activator of the ABCC1 transporter”.
